Experiments:
Experiment in all cases: biochemical
[1] = biological target: T1, panel of 374 wild-type kinases (Homo sapiens, UniProt P29317); details: read-out: % Enzyme Activity (relative to DMSO controls), EPHA2
T1 construct: purchased Reaction Biology Corporation

[2] = biological target: T2, panel of 374 wild-type kinases (Homo sapiens, UniProt P42680); details: read-out: % Enzyme Activity (relative to DMSO controls), kinase TEC
T2 construct: purchased Reaction Biology Corporation
T2 sequence (P42680 1-631): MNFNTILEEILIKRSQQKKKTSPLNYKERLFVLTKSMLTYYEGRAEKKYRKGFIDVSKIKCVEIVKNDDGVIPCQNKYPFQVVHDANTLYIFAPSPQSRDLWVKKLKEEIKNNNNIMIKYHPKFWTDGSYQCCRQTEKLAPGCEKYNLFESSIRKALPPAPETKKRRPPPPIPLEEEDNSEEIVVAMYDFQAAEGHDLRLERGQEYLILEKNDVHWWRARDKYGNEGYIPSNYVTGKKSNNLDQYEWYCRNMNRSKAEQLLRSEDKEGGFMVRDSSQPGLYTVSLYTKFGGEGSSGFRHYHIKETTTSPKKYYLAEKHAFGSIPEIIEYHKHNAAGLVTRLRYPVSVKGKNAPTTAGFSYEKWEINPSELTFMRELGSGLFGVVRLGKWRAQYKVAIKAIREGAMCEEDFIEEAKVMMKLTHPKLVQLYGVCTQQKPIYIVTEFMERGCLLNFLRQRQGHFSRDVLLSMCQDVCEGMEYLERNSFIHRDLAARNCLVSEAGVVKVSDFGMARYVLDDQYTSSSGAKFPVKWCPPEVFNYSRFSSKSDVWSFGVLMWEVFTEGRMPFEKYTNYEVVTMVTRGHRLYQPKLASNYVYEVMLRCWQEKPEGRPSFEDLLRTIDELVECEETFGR

[3] = biological target: T3, panel of 374 wild-type kinases (Homo sapiens, UniProt Q6IQ55); details: read-out: % Enzyme Activity (relative to DMSO controls), kinase TTBK2
T3 construct: purchased Reaction Biology Corporation

[4] = biological target: T4, panel of 374 wild-type kinases (Homo sapiens, UniProt Q8TD19); details: read-out: % Enzyme Activity (relative to DMSO controls), NEK9
T4 construct: purchased Reaction Biology Corporation
T4 sequence (Q8TD19 1-979): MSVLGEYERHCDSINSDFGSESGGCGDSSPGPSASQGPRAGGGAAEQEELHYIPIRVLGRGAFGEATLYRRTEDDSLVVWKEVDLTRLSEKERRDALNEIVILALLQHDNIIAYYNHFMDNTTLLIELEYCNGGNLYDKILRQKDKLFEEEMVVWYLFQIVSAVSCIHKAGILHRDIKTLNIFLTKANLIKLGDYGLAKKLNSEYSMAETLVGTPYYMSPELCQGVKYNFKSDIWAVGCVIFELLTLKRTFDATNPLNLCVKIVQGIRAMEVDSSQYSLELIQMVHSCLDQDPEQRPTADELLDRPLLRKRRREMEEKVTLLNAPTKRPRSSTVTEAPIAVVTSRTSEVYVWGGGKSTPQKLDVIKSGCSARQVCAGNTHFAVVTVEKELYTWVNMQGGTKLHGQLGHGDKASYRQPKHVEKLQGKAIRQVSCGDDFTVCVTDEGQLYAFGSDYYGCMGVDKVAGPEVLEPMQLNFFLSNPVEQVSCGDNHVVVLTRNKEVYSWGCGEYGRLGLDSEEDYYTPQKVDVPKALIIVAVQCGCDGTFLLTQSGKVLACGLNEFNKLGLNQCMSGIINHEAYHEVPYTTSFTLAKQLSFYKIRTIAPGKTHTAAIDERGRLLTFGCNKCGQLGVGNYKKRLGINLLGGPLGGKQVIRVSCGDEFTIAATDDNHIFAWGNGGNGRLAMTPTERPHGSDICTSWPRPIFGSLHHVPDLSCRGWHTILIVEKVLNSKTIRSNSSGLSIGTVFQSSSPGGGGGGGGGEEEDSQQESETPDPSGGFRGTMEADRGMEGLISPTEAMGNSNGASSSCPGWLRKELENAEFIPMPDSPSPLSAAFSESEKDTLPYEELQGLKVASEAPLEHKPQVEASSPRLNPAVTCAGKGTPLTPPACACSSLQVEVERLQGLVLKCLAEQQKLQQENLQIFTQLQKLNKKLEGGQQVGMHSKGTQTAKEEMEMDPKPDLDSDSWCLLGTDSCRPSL

[5] = biological target: T5, panel of 374 wild-type kinases (Homo sapiens, UniProt P29320); details: read-out: % Enzyme Activity (relative to DMSO controls), EPHA3
T5 construct: purchased Reaction Biology Corporation
T5 sequence (P29320 21-983): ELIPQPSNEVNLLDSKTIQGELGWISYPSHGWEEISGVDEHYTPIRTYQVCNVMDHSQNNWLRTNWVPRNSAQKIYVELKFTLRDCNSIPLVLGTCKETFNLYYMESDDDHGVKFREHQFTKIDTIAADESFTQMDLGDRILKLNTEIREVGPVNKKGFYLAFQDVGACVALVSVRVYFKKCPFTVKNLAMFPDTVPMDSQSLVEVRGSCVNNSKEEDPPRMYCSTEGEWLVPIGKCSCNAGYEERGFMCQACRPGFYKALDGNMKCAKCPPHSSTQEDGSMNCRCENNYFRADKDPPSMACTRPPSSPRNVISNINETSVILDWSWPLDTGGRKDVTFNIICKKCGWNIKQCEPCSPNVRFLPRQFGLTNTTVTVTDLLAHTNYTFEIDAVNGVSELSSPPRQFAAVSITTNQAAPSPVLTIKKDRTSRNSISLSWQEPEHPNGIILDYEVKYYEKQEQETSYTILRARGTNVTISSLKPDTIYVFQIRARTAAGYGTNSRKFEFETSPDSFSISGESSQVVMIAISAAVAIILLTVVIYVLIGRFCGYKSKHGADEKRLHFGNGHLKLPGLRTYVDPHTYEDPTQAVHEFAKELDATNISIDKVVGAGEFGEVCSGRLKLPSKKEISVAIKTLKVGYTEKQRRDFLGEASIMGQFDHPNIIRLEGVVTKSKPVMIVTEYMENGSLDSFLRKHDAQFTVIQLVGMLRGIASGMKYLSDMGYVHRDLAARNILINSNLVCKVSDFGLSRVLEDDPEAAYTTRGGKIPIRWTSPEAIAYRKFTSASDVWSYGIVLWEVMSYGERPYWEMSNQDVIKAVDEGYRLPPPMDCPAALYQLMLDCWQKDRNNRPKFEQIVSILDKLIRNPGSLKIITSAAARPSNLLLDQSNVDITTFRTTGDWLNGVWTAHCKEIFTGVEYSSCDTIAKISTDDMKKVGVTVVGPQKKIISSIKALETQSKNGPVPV

T1 sequence (P29317 24-976): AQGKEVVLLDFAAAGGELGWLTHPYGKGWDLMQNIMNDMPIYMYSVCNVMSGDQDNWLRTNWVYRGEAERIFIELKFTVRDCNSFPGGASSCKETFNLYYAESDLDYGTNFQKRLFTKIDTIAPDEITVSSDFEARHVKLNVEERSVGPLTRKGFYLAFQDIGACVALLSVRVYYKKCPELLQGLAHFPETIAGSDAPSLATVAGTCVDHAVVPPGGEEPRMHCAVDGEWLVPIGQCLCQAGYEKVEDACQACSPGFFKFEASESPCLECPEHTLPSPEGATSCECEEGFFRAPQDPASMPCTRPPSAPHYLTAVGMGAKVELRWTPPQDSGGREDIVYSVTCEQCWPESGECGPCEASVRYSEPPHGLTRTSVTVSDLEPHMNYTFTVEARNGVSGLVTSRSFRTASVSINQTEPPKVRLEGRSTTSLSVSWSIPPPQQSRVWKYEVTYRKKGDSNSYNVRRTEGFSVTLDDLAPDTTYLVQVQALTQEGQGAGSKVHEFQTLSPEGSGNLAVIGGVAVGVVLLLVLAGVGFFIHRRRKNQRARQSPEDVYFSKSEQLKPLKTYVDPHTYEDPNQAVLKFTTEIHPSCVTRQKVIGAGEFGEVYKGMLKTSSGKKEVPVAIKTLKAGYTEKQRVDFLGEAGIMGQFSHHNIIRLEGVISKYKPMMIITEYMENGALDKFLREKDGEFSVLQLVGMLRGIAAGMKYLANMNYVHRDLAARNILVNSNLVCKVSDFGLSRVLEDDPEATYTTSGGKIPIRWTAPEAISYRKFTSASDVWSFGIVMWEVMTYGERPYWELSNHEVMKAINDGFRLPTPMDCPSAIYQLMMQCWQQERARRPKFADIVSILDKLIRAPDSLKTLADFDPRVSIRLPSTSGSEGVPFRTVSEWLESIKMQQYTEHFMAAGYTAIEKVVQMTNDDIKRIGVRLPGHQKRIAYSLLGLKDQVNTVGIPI
T3 sequence (Q6IQ55 whole entry): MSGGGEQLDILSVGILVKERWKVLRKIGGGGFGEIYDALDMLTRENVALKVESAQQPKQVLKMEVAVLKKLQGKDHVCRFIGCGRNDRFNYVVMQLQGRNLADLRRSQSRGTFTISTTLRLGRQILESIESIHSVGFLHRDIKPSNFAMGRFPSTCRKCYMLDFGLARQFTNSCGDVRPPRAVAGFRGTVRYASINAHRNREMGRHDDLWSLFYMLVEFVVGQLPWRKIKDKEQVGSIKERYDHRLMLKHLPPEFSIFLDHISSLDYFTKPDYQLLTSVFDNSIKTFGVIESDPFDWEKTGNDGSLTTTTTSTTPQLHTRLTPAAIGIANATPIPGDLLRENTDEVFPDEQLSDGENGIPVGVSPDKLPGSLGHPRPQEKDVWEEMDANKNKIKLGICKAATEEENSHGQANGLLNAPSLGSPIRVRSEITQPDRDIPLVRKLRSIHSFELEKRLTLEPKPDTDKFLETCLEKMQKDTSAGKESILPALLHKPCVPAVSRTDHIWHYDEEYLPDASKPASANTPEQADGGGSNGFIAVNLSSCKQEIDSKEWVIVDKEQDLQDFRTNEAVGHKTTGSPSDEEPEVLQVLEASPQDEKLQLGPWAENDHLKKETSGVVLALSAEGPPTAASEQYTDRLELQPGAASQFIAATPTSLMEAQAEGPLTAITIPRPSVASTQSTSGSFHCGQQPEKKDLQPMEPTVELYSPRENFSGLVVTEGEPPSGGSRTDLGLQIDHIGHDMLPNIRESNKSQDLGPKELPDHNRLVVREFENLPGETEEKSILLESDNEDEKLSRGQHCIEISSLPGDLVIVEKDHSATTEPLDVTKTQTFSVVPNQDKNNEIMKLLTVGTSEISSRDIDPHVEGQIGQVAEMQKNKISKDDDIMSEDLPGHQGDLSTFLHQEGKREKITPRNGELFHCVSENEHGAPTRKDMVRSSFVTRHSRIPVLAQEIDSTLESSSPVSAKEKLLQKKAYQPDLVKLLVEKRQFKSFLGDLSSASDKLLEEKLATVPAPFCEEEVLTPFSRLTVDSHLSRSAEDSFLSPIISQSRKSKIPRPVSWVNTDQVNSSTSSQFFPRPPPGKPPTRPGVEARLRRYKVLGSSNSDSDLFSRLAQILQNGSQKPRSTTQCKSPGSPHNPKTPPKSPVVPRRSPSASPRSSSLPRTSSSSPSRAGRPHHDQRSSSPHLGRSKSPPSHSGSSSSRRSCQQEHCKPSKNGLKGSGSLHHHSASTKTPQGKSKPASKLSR

Compound | remaining activity at 5 µM [1] [%] | remaining activity at 5 µM [2] [%] | remaining activity at 5 µM [3] [%] | remaining activity at 5 µM [4] [%] | remaining activity at 5 µM [5] [%] | remaining activity at 10 µM ([1]; 10 uM) [%] | remaining activity at 10 µM ([2]; 10 uM) [%] | remaining activity at 10 µM ([3]; 10 uM) [%] | remaining activity at 10 µM ([4]; 10 uM) [%] | remaining activity at 10 µM ([5]; 10 uM) [%]
O=C(Nc1cnn(-c2csc(C(=O)NC3COC3)c2)c1)Nc1c(F)cccc1Cl [Compound 25, 4-(4-(3-(2-chloro-6-fluorophenyl)ureido)-1H-pyrazol-1-yl)-N-(oxetan-3-yl)thiophene-2-carboxamide] | 97.9 | 97.7 | 104 | 88.4 | 96.1 | – | – | – | – | –
O=C(Nc1cnn(-c2csc(C(=O)NC3COC3)c2)c1)Nc1ccccc1Cl [Compound 17, 4-(4-(3-(2-chlorophenyl)ureido)-1H-pyrazol-1-yl)-N-(oxetan-3-yl)thiophene-2-carboxamide] | 101 | 97.2 | 107 | 104 | 104 | – | – | – | – | –
Cc1sc(C(=O)NC2COC2)cc1-n1cc(NC(=O)Nc2c(F)cccc2Cl)cn1 [Compound 27, 4-(4-(3-(2-chloro-6-fluorophenyl)ureido)-1H-pyrazol-1-yl)-5-methyl-N-(oxetan-3-yl)thiophene-2-carboxamide] | – | – | – | – | – | 102 | 91.1 | 97.6 | 111 | 109

Source: patent US20240246942A1, “KINASE INHIBITORS FOR THE TREATMENT OF NEURODEGENERATIVE DISEASES” (priority 2020, published 2024)
